In ChEMBL document CHEMBL5137091, “Investigating the Structure-Activity Relationship of 1,2,4-Triazine G-Protein-Coupled Receptor 84 (GPR84) Antagonists” (J Med Chem, 2022):

system: not listed separately; experiment: Protein binding in mouse plasma assessed as unbound fraction; format: ADME, cell-free

fraction unbound	Compound
< 0.01	c1ccc(-c2nnc(Cc3c[nH]c4ccccc34)nc2-c2ccccc2)cc1
< 0.01	c1ccc(-c2nc(Cc3c[nH]c4ccccc34)nnc2-c2ccc(CN3CCOCC3)cc2)cc1

molecular target: G-protein coupled receptor 84 (Homo sapiens, UniProt Q9NQS5); experiment: biochemical
Sequence (Q9NQS5 whole entry): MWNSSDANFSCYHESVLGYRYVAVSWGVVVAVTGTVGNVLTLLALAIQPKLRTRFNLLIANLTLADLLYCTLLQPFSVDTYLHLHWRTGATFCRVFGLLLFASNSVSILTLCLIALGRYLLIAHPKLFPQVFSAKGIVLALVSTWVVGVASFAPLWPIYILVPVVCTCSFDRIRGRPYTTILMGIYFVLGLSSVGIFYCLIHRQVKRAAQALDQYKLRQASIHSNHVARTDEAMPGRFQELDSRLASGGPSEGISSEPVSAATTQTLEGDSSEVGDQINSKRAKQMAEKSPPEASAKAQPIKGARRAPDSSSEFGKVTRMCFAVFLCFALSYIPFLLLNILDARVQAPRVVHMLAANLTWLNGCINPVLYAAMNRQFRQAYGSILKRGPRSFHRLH

IC50 [nM]	Compound
10200	c1ccc(-c2cnnc(Cc3c[nH]c4ccccc34)n2)cc1
263	c1ccc(-c2nnc(Cc3c[nH]c4ccccc34)nc2-c2ncccn2)cc1
5620	c1ccc(-c2cnc(Cc3c[nH]c4ccccc34)nn2)cc1
398	COC(=O)c1cccc(-c2nc(Cc3c[nH]c4ccccc34)nnc2-c2ccccc2)c1
115	COC(=O)c1cccc(-c2nnc(Cc3c[nH]c4ccccc34)nc2-c2ccccc2)c1
